The subject of assay [1] is SRS-A synthesis (Rat Peritoneal Cells). The assay can be described thus: Inhibition of the in vitro synthesis of SRS-A in rat peritoneal cells (ionophore A23187 challenge, guinea pig ileum bioassay). As to conditions: for inhibition at 10 µM: p values given. It counts as cell-based, rat (male Sprague-Dawley). The source says:
To study the effect of drugs on SRS-A synthesis in rat peritoneal cells, these cells (including mast cells, monocytes, eosinophils and neutrophils)were isolated from male Sprague-Dawley rats (Charles River Laboratories) weighing 180-220 g by the lavage procedure described by Herzig, D. J. and Kusner, E. J., Journal of Pharmacology and Experimental Therapeutics, 194, 457-462 (1975) with the exception that Hanks balanced salt solution used in these experiments was adjusted to pH 6.9 with 5% (V/V) of 0.1M aqueous phosphate buffer and contained 50 m/gml sodium heparin. After removal from the peritoneal cavity of rats, the cells were subsequently isolated by centrifugation at 400×gravity for 10 minutes at 4° C. and resuspended to a concentration of about 2,000,000 cells per ml in Hanks buffer.
Samples for evaluation were prepared by adding various concentrations of test drugs to 2 ml aliquots of the resuspended cells in Hanks buffer. The 2 ml samples used for control contained 2 ml aliquots of resuspended cells in Hanks buffer without drugs. All of the above samples (2 ml final volume) were preincubated at 37° C. for 10 minutes in the presence of varying concentrations of test drug prior to challenge with 5×10^-7 M ionophore […]. This ionophore is disclosed in Burka and Flower, Br. J. Pharmacology 65: 35-41 (1979). Antibiotic A23187 was used as a probe for the study of calcium and magnesium function in biological systems. After ionophore challenge, SRS-A was synthesized in the samples by the cells for 10 minutes (at 37° C.) after which this synthesis was terminated by placing the samples in a boiling water bath for 10 minutes followed by centrifugation at 2,000×g (10 minutes) at 4° C. to remove coagulated protein and cellular debris. The SRS-A present in the resulting supernatants was quantitated by a bioassay using a guinea pig ileum as described in Orange, and Austen, Adv. Immunol. 10: 105-144 144 (1969). For this bioassay, a 1.5 cm segment of ileum was removed from animals weighing 300 to 400 g and suspended in an organ bath containing 10 ml of Tyrodes solution with 10^-6 M atropine sulfate and 10^-6 M pyrilamine maleate. The bath was maintained at 37° C. and aerated with a mixture of 95% O2 and 5%CO2. The concentration of SRS-A in the experimental samples was determined by a comparison of the isotonic contraction responses elicited by the samples with those obtained with varying amounts of an SRS-A standard solution prepared from chopped guinea pig lung as disclosed in Hitchcock, M. J. Pharmacol. Exp. Ther. 207: 630-640 (1978) and quantituted by the procedures of Orange, R. R. and Austen, K. F. Adv. Immunol. 10: 105-144 (1969) against histamine (1 unit of SRS-A being that amount which gives a contractile response similar to that of […] of histamine). In the absence of drug, the ionophore A23187-induced SRS-A synthesis varied between 40 to 50 units of SRS-A per 10^6 cells. In the presence of increasing concentrations of test drug, there was a concentration-related decrease in SRS-A synthesis. [formula] at each concentration of the various test drugs was calculated. The concentration of test drug which inhibits the synthesis of SRS-A by 50% (IC50) was determined for each test drug from a plot of the mean percent inhibition versus the log of drug concentration. The difference of units of SRS-A in the test sample used in the fraction given above was obtained by subtracting from the units of SRS-A in the control from the actual measurement of the units of SRS-A in the sample.

Assay [2] concerns the target T1, Prostaglandin endoperoxide synthase (Ovis aries, UniProt P05979).
T1 construct: sheep seminal vesicular gland microsomes (SSVM) as the enzyme source; from tissue; host or cells: sheep seminal vesicular gland microsomes, acetone powder
T1 sequence (P05979 25-600): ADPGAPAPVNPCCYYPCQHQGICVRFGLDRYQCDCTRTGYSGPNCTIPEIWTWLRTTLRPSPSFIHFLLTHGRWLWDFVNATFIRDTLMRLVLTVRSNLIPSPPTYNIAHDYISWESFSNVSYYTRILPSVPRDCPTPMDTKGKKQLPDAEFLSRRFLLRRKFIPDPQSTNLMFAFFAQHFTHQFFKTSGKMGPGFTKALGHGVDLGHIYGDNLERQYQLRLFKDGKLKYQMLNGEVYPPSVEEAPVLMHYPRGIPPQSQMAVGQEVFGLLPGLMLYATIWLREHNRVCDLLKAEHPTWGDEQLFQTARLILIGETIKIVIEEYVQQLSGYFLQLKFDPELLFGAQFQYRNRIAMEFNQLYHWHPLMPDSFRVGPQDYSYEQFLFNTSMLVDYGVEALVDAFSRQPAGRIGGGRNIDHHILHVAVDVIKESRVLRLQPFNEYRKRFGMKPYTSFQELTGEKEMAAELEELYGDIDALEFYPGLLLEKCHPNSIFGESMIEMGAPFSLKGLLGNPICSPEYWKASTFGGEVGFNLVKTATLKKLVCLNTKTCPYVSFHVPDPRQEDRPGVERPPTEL
The assay can be described thus: Prostaglandin endoperoxide synthase (PES) assay, oxygen uptake with sheep seminal vesicular gland microsomes. Format: biochemical. To be noted: 33 μM arachidonic acid, pH 8.5. As to the method:
The activity of PES was measured polarigraphically by following the disappearance of dissolved O2 from incubation mixtures containing arachidonic acid (AA) as substrate and sheep seminal vesicular gland microsomes (SSVM) as the enzyme source. Fifty mg of an acetone powder of SSVM were suspended, using a glass teflon homogenizer, in 1 ml of 0.1M tris. HCl (pH, 8.5) containing 0.67 mM phenol. This suspension of SSVM was incubated at room temperature in the presence of phenol to maximumly activate the PES and then the suspension was kept at 0°. Samples in a separate reaction vessel were each prepared by adding tris-phenol buffer (2.8 ml), 0.05 ml of the SSVM suspension, and a maximum of 0.12 ml of ethanol containing various concentrations of the test drug. […] Reaction vessels were then allowed to reach temperature equilibrium. An oxygen electrode is inserted into the vessel and then 24 μl of 4.1 mM AA are injected into the sealed vessel through a port on the side of the electrode. The final concentration of AA is 33 μM. Oxygen uptake is recorded and the initial rate of oxygen uptake used as a measure of PES activity. Each of the test compounds were tested initially at a high concentration (1 mM) and then, if required, dilutions are made. The mean percent inhibition was obtained for each concentration of the various test drugs by expressing as a percent the number obtained by dividing the difference of the oxygen uptake of the test sample by the oxygen uptake of the control. The concentration of test drug which inhibits the synthesis of PES by 50% (IC50) which is given in the following table was determined for each test drug from a plot of mean percent inhibition verses drug concentration. The difference of the oxygen uptake of test sample was obtained by subtracting from the oxygen uptake of the control, the oxygen uptake of the test sample.

A value given as a limit tells only on which side of the number the result lay.

In assay [1], `CCCCC/C=C\CCCCC#CCC#CCCCC(=O)O` [Compound 6, (Z)-14-eicosen-5,8-diynoic acid] yielded an IC50 of 1000 to 3000 nM and an inhibition at 10 µM of 100%. Besides, the IC50 in assay [2] is more than 100000 nM.

Regarding `CCCCCC#CCC#CCCCCCCCC(=O)O` [9,12-Octadecadiynoic Acid, reference compound], the IC50 was 3000 nM in assay [1] and 100 to 1000 nM in assay [2]. In assay [1], this compound showed an inhibition at 10 µM of 87 ± 1%.

In assay [1], `CCCCCCCC/C=C\CC#CCC#CCCCC(=O)O` [Compound 5, (Z,Z)-11-eicosen-5,8-diynoic acid] yielded an IC50 of 1000 to 3000 nM and an inhibition at 10 µM of 100%. The same compound showed an IC50 in assay [2] of more than 100000 nM.

Compound `CCCCC/C=C\C/C=C\CC#CCC#CCCCC(=O)O` [Compound 3, (Z,Z)-11,14-eicosadien-5,8-diynoic acid] displayed an inhibition at 10 µM in assay [1] of 81 ± 6%. Besides, the IC50 in assay [2] is 10000 to 100000 nM.
